Where two headings read alike, the source gives them in different places.
Assays:
[1] = Skin sensitization test according to Local Lymph Node Assay (LLNA) method, Stimulation Index (SI); conditions: LLNA method (OECD test guideline 429), SI less than 3 = no skin sensitization problem
[2] = statement of the material safety data sheet; cited from earlier work
[3] = in vivo

Row | Compound | SI value [1] | also measured
1 | C=C(C)C(=O)OCCCCOC(=O)C(=C)C [1,4-butane diol dimethacrylate] | 2.6): | –
2 | C=CC(=O)OCC(CC)(COC(=O)C=C)COC(=O)C=C [Trimethylol propane triacrylate (M-309), Trimethylol propane triacrylate] | – | skin sensitization as mentioned in MSDS [2]: Toagosei Company, Limited, skin sensitization causing
3 | C=CC(=O)OCC(CC)(COC(=O)C=C)COC(=O)C=C [Trimethylol propane triacrylate (SR-350), Trimethylol propane triacrylate] | 1.9): | –
4 | Diacrylate of caprolactone-modified hydroxy pivalic acid neopentyl glyco | manufactured by Nippon Kayaku Co., Ltd., SI Value = 0.9): | –
5 | Polypropylene glycol (n = 9) dimethacrylate | – | SI value [3]: 1.3):
